Measured values published in US10934304B2, “Spirocyclic compounds” (Recurium IP Holdings, LLC, priority 2016, dated 2021).

Assays:
A375 (melanoma) cells = test: Proliferation Assay (CellTiter-Glo); assay type: cell-based; conditions: 3 days incubation, CellTiter-Glo luminescence
Procedure: A375 (melanoma), Colo-205 (colon cancer), Miapaca (pancreatic), HPAFII (pancreatic), sNF02.0 (neurofibromatosis type 1), sNF96.2 (neurofibromatosis type 1) and 8505 (Thyroid) cells were grown and maintained in RPMI-1640 medium containing 100 U/mL penicillin-streptomycin and 10% fetal bovine serum. Cells were in growth medium in 96-well opaque-walled clear bottom plates and incubated in the CO2 incubator overnight before treatment. Cells were treated with compounds diluted in DMSO and a 10 point 3-fold serial dilutions were done. Plates were placed in 37° C., 5% CO2 to incubate for 3 days. Before they were developed by adding 100 μL of CellTiter-Glo reagent (Promega) to the assay plate, plates were shaken briefly for 2 mins and allowed to incubate at room temperature for 10 mins. The bottom of the plates was pasted with white back seal and luminescence was recorded with Flexstation3 with setting of luminescence, integration time 500 ms.
Compounds of Formula (I), (II) and (III) are active in this assay as noted in Table 2.

ERK2 = ERK2 (Homo sapiens (Human), UniProt P28482); test: Active ERK1 and ERK2 Kinase Assay (Mobility Shift Assay); assay type: biochemical; conditions: activated ERK2, Mobility Shift Assay
Sequence of ERK2 (P28482 whole entry): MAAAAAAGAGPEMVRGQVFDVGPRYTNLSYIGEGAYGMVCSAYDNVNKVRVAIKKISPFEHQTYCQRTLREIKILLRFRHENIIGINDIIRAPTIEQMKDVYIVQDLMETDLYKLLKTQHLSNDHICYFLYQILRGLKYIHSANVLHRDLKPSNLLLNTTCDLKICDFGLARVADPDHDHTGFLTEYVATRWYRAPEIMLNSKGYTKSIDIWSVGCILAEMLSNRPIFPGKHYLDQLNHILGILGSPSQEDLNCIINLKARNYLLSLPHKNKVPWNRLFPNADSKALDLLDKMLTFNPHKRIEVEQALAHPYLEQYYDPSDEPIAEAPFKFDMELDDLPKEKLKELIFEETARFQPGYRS
Procedure: Activated ERK1 and ERK2 activity was determined in a Mobility Shift Assay (MSA) format as follows: Compound and kinase solution were prepared with assay buffer (20 mM HEPES, 0.01% Triton X-100, 2 mM DTT, pH7.5) and mixed and incubated in for 30 mins at rt. ERK1 & ERK2 were then activated by the addition of F1-Substrate, ATP and metal solution and incubated for 1 h at rt. After 1 h, the reaction was terminated by the addition of […] of Termination Buffer (QuickScout Screening Assist MSA; Carna Biosciences) to the well. The reaction mixture was applied to LabChip™ system (PerkinElmer), and the product and substrate peptide peaks were separated, analyzed and quantitated. The kinase reaction is evaluated by the product ratio calculated from peak heights of product (P) and substrate(S) peptides (P/(P+S)).

IC50 (A375 (melanoma) cells; Homo sapiens, A-375, 72 h)	IC50 (ERK2)	IC50 (A375 (melanoma) cells)	SMILES
500 to 1000 nM	≤ 50 nM	–	Cn1cnc(-c2ccc(C3=CCN(C(=O)CN4CC[C@]5(CCN(c6ccc7[nH]nc(C89CC(C8)C9)c7c6)C5=O)C4)CC3)cc2)n1 [Example 72, (S)-2-(3-(Bicyclo[1.1.1]pentan-1-yl)-1H-indazol-5-yl)-7-(2-(4-(4-(1-methyl-1H-1,2,4-triazol-3-yl)phenyl)-5,6-dihydropyridin-1(2H)-yl)-2-oxoethyl)-2,7-diazaspiro[4.4]nonan-1-one]
≤ 500 nM	≤ 50 nM	–	Cn1cnc(-c2ccc(C3=CCN(C(=O)CN4CC[C@]5(CCN(c6ccc7[nH]nc(C8CCOC8)c7c6)C5=O)C4)CC3)cc2)n1 (stereo partly drawn) [Example 13, (5S)-7-(2-(4-(4-(1-Methyl-1H-1,2,4-triazol-3-yl)phenyl)-5,6-dihydropyridin-1(2H)-yl)-2-oxoethyl)-2-(3-(tetrahydrofuran-3-yl)-1H-indazol-5-yl)-2,7-diazaspiro[4.4]nonan-1-one]
≤ 500 nM	≤ 50 nM	–	Cn1cnc(-c2ccc(C3=CCN(C(=O)CN4CC[C@]5(CCN(c6ccc7[nH]nc(-c8cnn(C)n8)c7c6)C5=O)C4)CC3)cc2)n1 [Example 58, (S)-7-(2-(4-(4-(1-methyl-1H-1,2,4-triazol-3-yl)phenyl)-3,6-dihydropyridin-1(2H)-yl)-2-oxoethyl)-2-(3-(2-methyl-2H-1,2,3-triazol-4-yl)-1H-indazol-5-yl)-2,7-diazaspiro[4.4]nonan-1-one]
–	≤ 50 nM	≤ 500 nM	COc1ccc(-c2n[nH]c3ccc(N4CC[C@]5(CCN(CC(=O)N6CC=C(c7ccc(-c8ncn(C)n8)cc7)CC6)C5)C4=O)cc23)nc1 [Example 60]
–	≤ 50 nM	500 to 1000 nM	Cn1cnc(-c2ccc(C3=CCN(C(=O)CN4CC[C@]5(CCN(c6ccc7[nH]nc(-c8cnn(C)n8)c7n6)C5=O)C4)CC3)cc2)n1 [Example 59]
–	≤ 50 nM	≤ 500 nM	Cn1cnc(-c2ccc(C3=CCN(C(=O)CN4CC[C@]5(CCN(c6ccc7[nH]nc(-c8ccc(OC9CC9)nc8)c7n6)C5=O)C4)CC3)cc2)n1 [Example 67]
–	≤ 50 nM	≤ 500 nM	COc1cccc(-c2n[nH]c3ccc(N4CC[C@]5(CCN(CC(=O)N6CC=C(c7ccc(-c8ncn(C)n8)cc7)CC6)C5)C4=O)cc23)n1 [Example 61]
–	≤ 50 nM	500 to 1000 nM	Cn1cnc(-c2ccc(C3=CCN(C(=O)CN4CC[C@]5(CCN(c6ccc7[nH]nc(-c8ccc(Cl)cc8F)c7n6)C5=O)C4)CC3)cc2)n1 [Example 69]
500 to 1000 nM	≤ 50 nM	–	Cn1cnc(-c2ccc(C3=CCN(C(=O)CN4CC[C@]5(CCN(c6ccc7[nH]nc(C8CCN(CC(F)(F)F)CC8)c7c6)C5=O)C4)CC3)cc2)n1 [Example 12, (S)-7-(2-(4-(4-(1-Methyl-1H-1,2,4-triazol-3-yl)phenyl)-5,6-dihydropyridin-1(2H)-yl)-2-oxoethyl)-2-(3-(1-(2,2,2-trifluoroethyl)piperidin-4-yl)-1H-indazol-5-yl)-2,7-diazaspiro[4.4]nonan-1-one]
≥ 1000 nM	≤ 50 nM	–	COc1ncc(-c2n[nH]c3ccc(N4CC[C@]5(CCN(CC(=O)N6CC=C(c7ccc(-c8ncn(C)n8)cc7)CC6)C5)C4=O)cc23)cc1C(F)(F)F [Example 8]
≤ 500 nM	≤ 50 nM	–	CNC(=O)c1ccc(-c2n[nH]c3ccc(N4CC[C@]5(CCN(CC(=O)N6CC=C(c7ccc(-c8ncn(C)n8)cc7)CC6)C5)C4=O)cc23)cn1 [Example 6]
≤ 500 nM	≤ 50 nM	–	Cn1cnc(-c2ccc(C3=CCN(C(=O)CN4CC[C@]5(CCN(c6ccc7[nH]nc(-c8ccc(F)cn8)c7c6)C5=O)C4)CC3)cc2)n1 [Example 28, (S)-2-(3-(5-Fluoropyridin-2-yl)-1H-indazol-5-yl)-7-(2-(4-(4-(1-methyl-1H-1,2,4-triazol-3-yl)phenyl)-5,6-dihydropyridin-1(2H)-yl)-2-oxoethyl)-2,7-diazaspiro[4.4]nonan-1-one]
≤ 500 nM	≤ 50 nM	–	COc1ccc(-c2n[nH]c3ccc(N4CC[C@]5(CCN(CC(=O)N6CC=C(c7ccc(-c8ncn(C)n8)cc7)CC6)C5)C4=O)cc23)cn1 [Example 2]

Further lines, the compound ahead of its results:

SMILES	IC50 (A375 (melanoma) cells; Homo sapiens, A-375, 72 h)	IC50 (ERK2)	IC50 (A375 (melanoma) cells)
Cn1nc(-c2ccc(C3=CCN(C(=O)CN4CC[C@]5(CCN(c6ccc7[nH]nc(-c8ccc(C#N)c(Cl)c8)c7c6)C5=O)C4)CC3)cc2)oc1=O [Example 14]	–	≤ 50 nM	≤ 500 nM
CC(C)Oc1ccc(-c2n[nH]c3ccc(N4CC[C@]5(CCN(CC(=O)N6CC=C(c7ccc(-c8ncn(C)n8)s7)CC6)C5)C4=O)nc23)cn1 [Example 65]	–	≤ 50 nM	≤ 500 nM
Cn1cnc(-c2ccc(C3=CCN(C(=O)CN4CC[C@]5(CCN(c6ccc7[nH]nc(C8CCOCC8)c7n6)C5=O)C4)CC3)s2)n1 [Example 64]	–	≤ 50 nM	≤ 500 nM
COc1ccc(-c2n[nH]c3ccc(N4CC[C@]5(CCN(CC(=O)N6CC=C(c7ccc(-c8ncn(C)n8)s7)CC6)C5)C4=O)nc23)cn1 [Example 66]	–	≤ 50 nM	≤ 500 nM
Cc1ccc(-c2n[nH]c3ccc(N4CC[C@]5(CCN(CC(=O)N6CCC(c7ccc(-c8ncn(C)n8)cc7)CC6)C5)C4=O)nc23)cn1 [Example 79]	–	≤ 50 nM	≤ 500 nM
COc1ccc(-c2n[nH]c3ccc(N4CC[C@]5(CCN(CC(=O)N6CC=C(c7ccc(-c8ncn(C)n8)cc7)CC6)C5)C4=O)nc23)cn1 [Example 21]	–	≤ 50 nM	≤ 500 nM
CC(C)c1nc2cc(-c3n[nH]c4ccc(N5CC[C@]6(CCN(CC(=O)N7CC=C(c8ccc(-c9ncn(C)n9)cc8)CC7)C6)C5=O)nc34)ccc2o1 [Example 91]	–	≤ 50 nM	500 to 1000 nM
CCOc1ccc(-c2n[nH]c3ccc(N4CC[C@]5(CCN(CC(=O)N6CC=C(c7ccc(-c8ncn(C)n8)cc7)CC6)C5)C4=O)nc23)cn1 [Example 81]	–	≤ 50 nM	≤ 500 nM
COc1ccc(-c2n[nH]c3ccc(N4CC[C@]5(CCN(CC(=O)N6CCN(c7ccc(-c8ncn(C)n8)cn7)CC6)C5)C4=O)nc23)cn1 [Example 46]	–	≤ 50 nM	≤ 500 nM
CC(C)n1cc(-c2n[nH]c3ccc(N4CC[C@]5(CCN(CC(=O)N6CC=C(c7ccc(-c8ncn(C)n8)cc7)CC6)C5)C4=O)nc23)cn1 [Example 40]	≤ 500 nM	≤ 50 nM	–
Cn1cnc(-c2ccc(C3=CCN(C(=O)CN4CC[C@]5(CCN(c6ccc7[nH]nc(-c8ccc9c(c8)OC(C)(C)O9)c7n6)C5=O)C4)CC3)cc2)n1 [Example 62]	–	≤ 50 nM	500 to 1000 nM
Cn1cnc(-c2cnc(C3=CCN(C(=O)CN4CC[C@]5(CCN(c6ccc7[nH]nc(-c8ccc(F)cc8)c7n6)C5=O)C4)CC3)s2)n1 [Example 47]	–	≤ 50 nM	≤ 500 nM
CC(C)Sc1ccc(-c2n[nH]c3ccc(N4CC[C@]5(CCN(CC(=O)N6CC=C(c7ccc(-c8ncn(C)n8)cc7)CC6)C5)C4=O)nc23)cn1 [Example 76]	–	≤ 50 nM	≤ 500 nM
CC(C)Oc1ccc(-c2n[nH]c3ccc(N4CC[C@]5(CCN(CC(=O)N6CC=C(c7ncc(-c8ncn(C)n8)s7)CC6)C5)C4=O)nc23)cn1 [Example 25]	–	≤ 50 nM	≤ 500 nM
Cc1cc(-c2n[nH]c3ccc(N4CC[C@]5(CCN(CC(=O)N6CCN(c7ccc(-c8ncn(C)n8)cn7)CC6)C5)C4=O)nc23)ccn1 [Example 44]	–	≤ 50 nM	≤ 500 nM
Cn1cnc(-c2ccc(C3=CCN(C(=O)CN4CC[C@]5(CCN(c6ccc7[nH]nc(-c8ccc(Cl)cc8)c7n6)C5=O)C4)CC3)cc2)n1 [Example 68]	–	≤ 50 nM	≤ 500 nM
Cc1ccc(-c2n[nH]c3ccc(N4CC[C@]5(CCN(CC(=O)N6CCC(c7ncc(-c8ncn(C)n8)s7)CC6)C5)C4=O)nc23)cn1 [Example 80]	≤ 500 nM	≤ 50 nM	–
COc1ccc(-c2n[nH]c3ccc(N4CC[C@]5(CCN(CC(=O)N6CC=C(c7ncc(-c8ncn(C)n8)s7)CC6)C5)C4=O)nc23)cn1 [Example 36]	≤ 500 nM	≤ 50 nM	–
Cc1ccc(-c2n[nH]c3ccc(N4CC[C@]5(CCN(CC(=O)N6CC=C(c7ccc(-c8ncn(C)n8)cc7)CC6)C5)C4=O)nc23)cn1 [Example 20]	–	≤ 50 nM	≤ 500 nM
COc1ccc(-c2n[nH]c3ccc(N4CC[C@]5(CCN(CC(=O)N6CC=C(c7ccc(-c8nn(C)c(=O)o8)cc7)CC6)C5)C4=O)cc23)cn1 [Example 19]	–	≤ 50 nM	≤ 500 nM
Cn1nc(-c2ccc(C3=CCN(C(=O)CN4CC[C@]5(CCN(c6ccc7[nH]nc(-c8ccc(F)cc8)c7c6)C5=O)C4)CC3)cc2)oc1=O [Example 18]	–	≤ 50 nM	≤ 500 nM
COc1ccc(-c2n[nH]c3ccc(N4CC[C@]5(CCN(CC(=O)N6CC=C(c7ccc(-c8ncn(C)n8)cc7)CC6)C5)C4=O)nc23)nc1OC [Example 93]	–	≤ 50 nM	≤ 500 nM
Cc1ccc(-c2n[nH]c3ccc(N4CC[C@]5(CCN(CC(=O)N6CC=C(c7ccc(-c8nn(C)c(=O)o8)cc7)CC6)C5)C4=O)nc23)cn1 [Example 35]	≤ 500 nM	≤ 50 nM	–
